Laboratory results as given in paper PMC4550851, “Potential analgesic effects of a novel N-acylethanolamine acid amidase inhibitor F96 through PPAR-α” (Scientific Reports, 2015).

Experiments:
Assay type in all cases: biochemical
[1] = biological target: T1, N-acylethanolamine acid amidase (NAAA) (Homo sapiens, UniProt Q02083); assay: enzyme activity assay, IC50
T1 sequence (Q02083 29-125): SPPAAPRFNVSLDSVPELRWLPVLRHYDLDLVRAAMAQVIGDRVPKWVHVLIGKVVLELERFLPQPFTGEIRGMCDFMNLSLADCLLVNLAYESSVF
T1 sequence (Q02083 126-359): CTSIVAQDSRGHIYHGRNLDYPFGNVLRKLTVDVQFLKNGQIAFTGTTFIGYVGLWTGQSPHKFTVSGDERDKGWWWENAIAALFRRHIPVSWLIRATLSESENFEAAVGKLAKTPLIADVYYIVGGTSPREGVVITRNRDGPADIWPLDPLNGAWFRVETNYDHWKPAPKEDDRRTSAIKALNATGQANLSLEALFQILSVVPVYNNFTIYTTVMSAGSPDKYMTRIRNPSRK

[2] = biological target: T2, FAAH (Rattus norvegicus, UniProt P97612); assay: enzyme activity assay with extracted recombinant rFAAH, anandamide substrate (selectivity counter-assay)
T2 construct: extracted recombinant rat FAAH (rFAAH)
T2 sequence (P97612 1-579): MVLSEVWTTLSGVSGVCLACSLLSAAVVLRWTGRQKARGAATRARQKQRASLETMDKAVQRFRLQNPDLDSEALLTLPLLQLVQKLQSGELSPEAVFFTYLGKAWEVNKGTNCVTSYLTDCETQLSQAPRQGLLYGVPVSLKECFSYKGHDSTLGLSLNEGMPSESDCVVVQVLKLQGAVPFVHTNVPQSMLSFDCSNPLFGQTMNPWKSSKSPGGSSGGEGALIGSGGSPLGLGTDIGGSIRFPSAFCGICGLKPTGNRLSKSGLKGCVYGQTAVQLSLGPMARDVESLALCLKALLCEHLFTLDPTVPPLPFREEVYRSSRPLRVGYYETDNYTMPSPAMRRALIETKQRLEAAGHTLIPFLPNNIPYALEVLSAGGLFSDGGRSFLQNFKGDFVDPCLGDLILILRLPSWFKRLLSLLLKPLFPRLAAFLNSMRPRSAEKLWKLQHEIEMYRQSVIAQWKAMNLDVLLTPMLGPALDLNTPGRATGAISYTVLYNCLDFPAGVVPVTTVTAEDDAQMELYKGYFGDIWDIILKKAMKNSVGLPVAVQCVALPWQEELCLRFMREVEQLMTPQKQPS

[3] = biological target: T3, N-acylethanolamine acid amidase (NAAA) (Rattus norvegicus, UniProt Q5KTC7); assay: enzyme activity assay with extracted recombinant rNAAA, heptadecenoylethanolamide substrate, concentration-response
T3 construct: extracted recombinant rat NAAA (rNAAA)
T3 sequence (Q5KTC7 34-130): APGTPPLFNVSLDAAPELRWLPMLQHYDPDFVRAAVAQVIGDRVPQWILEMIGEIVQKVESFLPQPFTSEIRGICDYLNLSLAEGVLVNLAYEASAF
T3 sequence (Q5KTC7 131-362): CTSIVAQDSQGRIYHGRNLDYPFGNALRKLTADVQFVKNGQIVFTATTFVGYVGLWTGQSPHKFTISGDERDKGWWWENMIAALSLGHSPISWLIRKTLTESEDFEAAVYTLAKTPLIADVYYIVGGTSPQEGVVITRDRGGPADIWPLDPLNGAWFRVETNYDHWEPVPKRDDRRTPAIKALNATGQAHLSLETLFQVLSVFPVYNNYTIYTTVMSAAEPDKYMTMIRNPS

Q: For `O=C(CCCCCc1ccccc1)N1CCOC1=O` [F96, 3-(6-phenylhexanoyl)oxazolidin-2-one], which IC50 [1] is on record?
A: 269 ± 43.8 nM

Q: What about the IC50 [2] of the same compound?
A: 42000 ± 1920 nM

Q: And the IC50 [3]?
A: 269 ± 22.4 nM
